Measurements taken from ChEMBL document CHEMBL6127119 (J Med Chem, 2024).
≈ marks a conversion by molar mass, not a printed value.

Assays:
Type in all cases: functional
Settings in all cases: time 16-24 hrs
Staphylococcus aureus [1] = experiment: Antibacterial activity against methicillin-susceptible Staphylococcus aureus incubated for 16 to 24 hrs by CLSI based broth microdilution method
Staphylococcus aureus [2] = experiment: Antibacterial activity against vancomycin-intermediate Staphylococcus aureus incubated for 16 to 24 hrs by CLSI based broth microdilution method
Enterococcus faecium [3] = experiment: Antibacterial activity against vancomycin-resistant Enterococcus faecium harboring VanA phenotype incubated for 16 to 24 hrs by CLSI based broth microdilution method
Enterococcus faecium [4] = experiment: Antibacterial activity against vancomycin-resistant Enterococcus faecium harboring VanB phenotype incubated for 16 to 24 hrs by CLSI based broth microdilution method
Escherichia coli = experiment: Antibacterial activity against Escherichia coli AB1157 incubated for 16 to 24 hrs by CLSI based broth microdilution method
Acinetobacter baumannii = experiment: Antibacterial activity against Carbapenem-resistant Acinetobacter baumannii clinical isolate incubated for 16 to 24 hrs by CLSI based broth microdilution method
Klebsiella pneumoniae = experiment: Antibacterial activity against Klebsiella pneumoniae clinical isolate incubated for 16 to 24 hrs by CLSI based broth microdilution method
Enterococcus faecium [5] = experiment: Antibacterial activity against vancomycin-resistant Enterococcus faecium harboring VanM phenotype incubated for 16 to 24 hrs by CLSI based broth microdilution method
Pseudomonas aeruginosa = experiment: Antibacterial activity against Pseudomonas aeruginosa PAO1 incubated for 16 to 24 hrs by CLSI based broth microdilution method

SMILES | MIC (Staphylococcus aureus [1]) [µg/mL] | MIC (Staphylococcus aureus [2]) [µg/mL] | MIC (Enterococcus faecium [3]) [µg/mL] | MIC (Enterococcus faecium [4]) [µg/mL] | MIC (Escherichia coli) [µg/mL] | MIC (Acinetobacter baumannii) [µg/mL] | MIC (Klebsiella pneumoniae) [µg/mL] | MIC (Enterococcus faecium [5]) [µg/mL] | MIC (Pseudomonas aeruginosa) [µg/mL]
CN[C@H](CC(C)C)C(=O)N[C@H]1C(=O)N[C@@H](CC(N)=O)C(=O)N[C@H]2C(=O)N[C@H]3C(=O)N[C@H](C(=O)N[C@H](C(=O)NCc4ccc(-c5ccc(CN)cc5)cc4)c4cc(O)cc(O)c4-c4cc3ccc4O)[C@H](O)c3ccc(c(Cl)c3)Oc3cc2cc(c3O[C@@H]2O[C@H](CO)[C@@H](O)[C@H](O)[C@H]2O[C@H]2C[C@](C)(N)[C@H](O)[C@H](C)O2)Oc2ccc(cc2Cl)[C@H]1O | ≤ 0.063 | 1 (≈ 0.608 µM) | 8 (≈ 4.87 µM) | 8 (≈ 4.87 µM) | 16 (≈ 9.74 µM) | 32 (≈ 19.5 µM) | > 128 | – | –
CC(C)C[C@H](C(=O)N[C@H]1C(=O)N[C@@H](CC(N)=O)C(=O)N[C@H]2C(=O)N[C@H]3C(=O)N[C@H](C(=O)N[C@H](C(=O)O)c4cc(O)cc(O)c4-c4cc3ccc4O)[C@H](O)c3ccc(c(Cl)c3)Oc3cc2cc(c3O[C@@H]2O[C@H](CO)[C@@H](O)[C@H](O)[C@H]2O[C@H]2C[C@](C)(N)[C@H](O)[C@H](C)O2)Oc2ccc(cc2Cl)[C@H]1O)N(C)Cc1ccc(-c2ccc(CCNC(=N)N)cc2)cc1 | 2 (≈ 1.18 µM) | 4 (≈ 2.35 µM) | 32 (≈ 18.8 µM) | 32 (≈ 18.8 µM) | > 128 | > 128 | > 128 | 32 (≈ 18.8 µM) | –
CN[C@H](CC(C)C)C(=O)N[C@H]1C(=O)N[C@@H](CC(N)=O)C(=O)N[C@H]2C(=O)N[C@H]3C(=O)N[C@H](C(=O)N[C@H](C(=O)O)c4cc(O)cc(O)c4-c4cc3ccc4O)[C@H](O)c3ccc(c(Cl)c3)Oc3cc2cc(c3O[C@@H]2O[C@H](CO)[C@@H](O)[C@H](O)[C@H]2O[C@H]2C[C@](C)(NCc3ccc(-c4ccc(CNC(=N)N)cc4)cc3)[C@H](O)[C@H](C)O2)Oc2ccc(cc2Cl)[C@H]1O | 0.125 (≈ 0.0741 µM) | 2 (≈ 1.19 µM) | 4 (≈ 2.37 µM) | 4 (≈ 2.37 µM) | 64 (≈ 37.9 µM) | 64 (≈ 37.9 µM) | > 128 | – | –
CC(=O)NC[C@H]1CN(c2ccc(N3CCOCC3)c(F)c2)C(=O)O1 [LINEZOLID] | – | – | 1 (≈ 2.96 µM) | 2 (≈ 5.93 µM) | 128 (≈ 379 µM) | 128 (≈ 379 µM) | > 128 | 2 (≈ 5.93 µM) | > 128
CC(C)C[C@@H](N)C(=O)N[C@H]1C(=O)N[C@@H](CC(N)=O)C(=O)N[C@H]2C(=O)N[C@H]3C(=O)N[C@H](C(=O)N[C@H](C(=O)NCc4ccc(CNC(=N)N)cc4)c4cc(O)cc(O)c4-c4cc3ccc4O)[C@H](O)c3ccc(c(Cl)c3)Oc3cc2cc(c3O[C@@H]2O[C@H](CO)[C@@H](O)[C@H](O)[C@H]2O[C@H]2C[C@](C)(N)[C@H](O)[C@H](C)O2)Oc2ccc(cc2Cl)[C@H]1O | 0.25 (≈ 0.157 µM) | 1 (≈ 0.627 µM) | 16 (≈ 10 µM) | 8 (≈ 5.01 µM) | 8 (≈ 5.01 µM) | 32 (≈ 20.1 µM) | – | 16 (≈ 10 µM) | –
CN[C@H](CC(C)C)C(=O)N[C@H]1C(=O)N[C@@H](CC(N)=O)C(=O)N[C@H]2C(=O)N[C@H]3C(=O)N[C@H](C(=O)N[C@H](C(=O)O)c4cc(O)cc(O)c4-c4cc3ccc4O)[C@H](O)c3ccc(c(Cl)c3)Oc3cc2cc(c3O[C@@H]2O[C@H](CO)[C@@H](O)[C@H](O)[C@H]2O[C@H]2C[C@](C)(NCc3ccc(-c4ccc(CCNC(=N)N)cc4)cc3)[C@H](O)[C@H](C)O2)Oc2ccc(cc2Cl)[C@H]1O | 0.125 (≈ 0.0735 µM) | 2 (≈ 1.18 µM) | 8 (≈ 4.7 µM) | 4 (≈ 2.35 µM) | 64 (≈ 37.6 µM) | 64 (≈ 37.6 µM) | > 128 | – | –
CN[C@H](CC(C)C)C(=O)N[C@H]1C(=O)N[C@@H](CC(N)=O)C(=O)N[C@H]2C(=O)N[C@H]3C(=O)N[C@H](C(=O)N[C@H](C(=O)O)c4cc(O)cc(O)c4-c4cc3ccc4O)[C@H](O)c3ccc(c(Cl)c3)Oc3cc2cc(c3O[C@@H]2O[C@H](CO)[C@@H](O)[C@H](O)[C@H]2O[C@H]2C[C@](C)(NCc3ccc(-c4ccc(CN)cc4)cc3)[C@H](O)[C@H](C)O2)Oc2ccc(cc2Cl)[C@H]1O | 0.25 (≈ 0.152 µM) | 2 (≈ 1.22 µM) | 16 (≈ 9.73 µM) | 16 (≈ 9.73 µM) | 64 (≈ 38.9 µM) | 128 (≈ 77.8 µM) | > 128 | – | –
CC(C)C[C@H](C(=O)N[C@H]1C(=O)N[C@@H](CC(N)=O)C(=O)N[C@H]2C(=O)N[C@H]3C(=O)N[C@H](C(=O)N[C@H](C(=O)O)c4cc(O)cc(O)c4-c4cc3ccc4O)[C@H](O)c3ccc(c(Cl)c3)Oc3cc2cc(c3O[C@@H]2O[C@H](CO)[C@@H](O)[C@H](O)[C@H]2O[C@H]2C[C@](C)(N)[C@H](O)[C@H](C)O2)Oc2ccc(cc2Cl)[C@H]1O)N(C)Cc1ccc(-c2ccc(CCN)cc2)cc1 | 1 (≈ 0.603 µM) | 8 (≈ 4.82 µM) | 64 (≈ 38.6 µM) | 64 (≈ 38.6 µM) | > 128 | > 128 | > 128 | 64 (≈ 38.6 µM) | –
